Measurements published in patent US20070128217A1 (priority 2003, published 2007).

Assays:
[1] = system: antibodies in sera from SARS patients (sera 1a, 1b, 2, 6, 37, 62, London, SARS-yellow, SARS-green); format: binding, human; set-up: Binding of serum 6 to linear peptides of protein X1 of SARS-CoV Urbani / Binding of serum 37 to linear peptides of protein X1 of SARS-CoV Urbani / Binding of serum 6 to looped/cyclic peptide (PEPSCAN-ELISA) / Binding of serum 37 to looped/cyclic peptide (PEPSCAN-ELISA) / Binding of serum 37 to looped/cyclic peptides of protein X1 of SARS-CoV Urbani / Binding of serum 6 to linear peptides of protein X2 / Binding of serum 37 to linear peptides of protein X2 / Binding of serum 37 to looped/cyclic peptides of protein X2 of SARS-CoV Urbani / Binding of serum 6 to linear peptides of protein M of SARS-CoV Urbani / Binding of serum 37 to linear peptides of protein M of SARS-CoV Urbani / Binding of serum 6 to looped/cyclic peptides of protein M of SARS-CoV Urbani / Binding of serum 37 to looped/cyclic peptides of protein M of SARS-CoV Urbani / Binding of serum 6 to linear peptides of protein X3 of SARS-CoV Urbani / Binding of serum 37 to linear peptides of protein X3 of SARS-CoV Urbani / Binding of serum 37 to looped/cyclic peptides of protein X3 of SARS-CoV Urbani / Binding of serum 6 to linear peptides of protein X4 of SARS-CoV Urbani / Binding of serum 37 to linear peptides of protein X4 of SARS-CoV Urbani / Binding of serum 37 to looped/cyclic peptides of protein X4 of SARS-CoV Urbani / Binding of serum 6 to linear peptides of protein X5 of SARS-CoV Urbani / Binding of serum 37 to linear peptides of protein X5 of SARS-CoV Urbani / Binding of serum 37 to looped/cyclic peptides of protein X5 of SARS-CoV Urbani / Binding of serum 6 to linear peptides of protein N of SARS-CoV Urbani / Binding of serum 37 to linear peptides of protein N of SARS-CoV Urbani / Binding of serum 6 to linear peptide (PEPSCAN-ELISA) / Binding of serum 1a to looped/cyclic peptides of protein N of SARS-CoV Urbani / Binding of serum 1b to looped/cyclic peptides of protein N of SARS-CoV Urbani / Binding of serum 2 to looped/cyclic peptides of protein N of SARS-CoV Urbani / Binding of serum 6 to looped/cyclic peptides of protein N of SARS-CoV Urbani / Binding of serum 37 to looped/cyclic peptides of protein N of SARS-CoV Urbani / Binding of serum 62 to looped/cyclic peptides of protein N of SARS-CoV Urbani / Binding of serum London to looped/cyclic peptides of protein N of SARS-CoV Urbani / Binding of serum SARS-green to looped/cyclic peptides of protein N of SARS-CoV Urbani: unit not given here
[2] = system: control sera (pooled serum of ten healthy LUMC hospital workers; commercial negative donor pooled serum from the Dutch bloodbank); format: binding, human; set-up: Binding of Control serum LUMC to linear peptides / Binding of Control serum Blood-bank to linear peptides / Binding of Control serum LUMC to looped peptides / Binding of Control Serum Blood-Bank to Looped peptides / Binding of Control serum LUMC to linear peptides of the protein M of SARS-CoV Urbani / Binding of Control serum Blood-bank to linear peptides of the protein M of SARS-CoV Urbani / Binding of Control serum LUMC to looped peptides of the protein M of SARS-CoV Urbani / Binding of Control Serum Blood-Bank to Looped peptides of the protein M of SARS-CoV Urbani: unit not given here
[3] = system: rabbit serum obtained by immunizing a rabbit with the SARS-CoV strain Frankfurt 1; format: binding; set-up: Binding of a rabbit serum to linear peptides / Binding of a rabbit serum to looped peptides / Rabbit serum linear peptides / Rabbit serum looped peptides / Binding of a rabbit serum to linear peptides of protein N of SARS-CoV Urbani (Rabbit serum linear peptides) / Binding of a rabbit serum to looped/cyclic peptides of protein N of SARS-CoV Urbani (Rabbit serum looped peptides): unit not given here

VIGFLFLAWIMLLQF
0.7: Binding of serum 1a to linear peptides of protein M of SARS-CoV Urbani [1] | Binding of serum 1a to looped/cyclic peptides of protein M of SARS-CoV Urbani [1] | Binding of serum 37 to linear peptides of protein M of SARS-CoV Urbani [1] | Binding of serum 62 to linear peptides of protein M of SARS-CoV Urbani [1] | Binding of serum 62 to looped/cyclic peptides of protein M of SARS-CoV Urbani [1] | Binding of Control Serum Blood-Bank to Looped peptides of the protein M of SARS-CoV Urbani [2] | Binding of Control serum LUMC to looped peptides of the protein M of SARS-CoV Urbani [2]
0.2: Binding of serum London to looped/cyclic peptides of protein M of SARS-CoV Urbani [1] | Binding of serum SARS-green to linear peptides of protein M of SARS-CoV Urbani [1]
0.3: Binding of serum 6 to linear peptides of protein M of SARS-CoV Urbani [1] | Binding of serum London to linear peptides of protein M of SARS-CoV Urbani [1] | Binding of serum SARS-green to looped/cyclic peptides of protein M of SARS-CoV Urbani [1] | Binding of Control serum LUMC to linear peptides of the protein M of SARS-CoV Urbani [2] | Rabbit serum linear peptides [3] | Rabbit serum looped peptides [3]
0.5: Binding of serum 2 to looped/cyclic peptides of protein M of SARS-CoV Urbani [1] | Binding of serum 6 to looped/cyclic peptides of protein M of SARS-CoV Urbani [1] | Binding of serum 37 to looped/cyclic peptides of protein M of SARS-CoV Urbani [1] | Binding of Control serum Blood-bank to linear peptides of the protein M of SARS-CoV Urbani [2]
0.6: Binding of serum SARS-yellow to looped/cyclic peptides of protein M of SARS-CoV Urbani [1]
0.0: Binding of serum SARS-yellow to linear peptides of protein M of SARS-CoV Urbani [1]
0.4: Binding of serum 1b to linear peptides of protein M of SARS-CoV Urbani [1] | Binding of serum 1b to looped/cyclic peptides of protein M of SARS-CoV Urbani [1] | Binding of serum 2 to linear peptides of protein M of SARS-CoV Urbani [1]

VIGVAFLAVFQSATK
0.6: Binding of serum 6 to looped/cyclic peptide (PEPSCAN-ELISA) [1] | Binding of a rabbit serum to looped peptides [3]
0.7: Binding of serum London to looped/cyclic peptide (PEPSCAN-ELISA) [1]
0.2: Binding of serum London to linear peptides of protein X1 of SARS-CoV Urbani [1] | Binding of serum SARS-green to looped/cyclic peptide (PEPSCAN-ELISA) [1] | Binding of serum SARS-yellow to linear peptides of protein X1 of SARS-CoV Urbani [1]
0.1: Binding of serum SARS-green to linear peptides of protein X1 of SARS-CoV Urbani [1] | Binding of a rabbit serum to linear peptides [3]
0.5: Binding of serum 1a to linear peptides of protein X1 of SARS-CoV Urbani [1] | Binding of serum 37 to linear peptides of protein X1 of SARS-CoV Urbani [1] | Binding of serum SARS-yellow to looped/cyclic peptide (PEPSCAN-ELISA) [1] | Binding of Control Serum Blood-Bank to Looped peptides [2] | Binding of Control serum Blood-bank to linear peptides [2] | Binding of Control serum LUMC to linear peptides [2] | Binding of Control serum LUMC to looped peptides [2]
0.3: Binding of serum 1b to looped/cyclic peptide (PEPSCAN-ELISA) [1] | Binding of serum 2 to looped/cyclic peptide (PEPSCAN-ELISA) [1]
0.4: Binding of serum 1a to looped/cyclic peptide (PEPSCAN-ELISA) [1] | Binding of serum 1b to linear peptides of protein X1 of SARS-CoV Urbani [1] | Binding of serum 2 to linear peptides of protein X1 of SARS-CoV Urbani [1] | Binding of serum 6 to linear peptides of protein X1 of SARS-CoV Urbani [1] | Binding of serum 37 to looped/cyclic peptide (PEPSCAN-ELISA) [1] | Binding of serum 62 to linear peptides of protein X1 of SARS-CoV Urbani [1] | Binding of serum 62 to looped/cyclic peptide (PEPSCAN-ELISA) [1]

VKDYVVVHGYFTEVY
0.1: Binding of a rabbit serum to linear peptides [3]
0.7: Binding of serum 1a to linear peptides of protein X1 of SARS-CoV Urbani [1]
0.6: Binding of serum 1b to linear peptides of protein X1 of SARS-CoV Urbani [1] | Binding of serum 37 to linear peptides of protein X1 of SARS-CoV Urbani [1] | Binding of serum 37 to looped/cyclic peptides of protein X1 of SARS-CoV Urbani [1] | Binding of Control serum LUMC to looped peptides [2] | Binding of a rabbit serum to looped peptides [3]
0.2: Binding of serum 6 to looped/cyclic peptides of protein X1 of SARS-CoV Urbani [1] | Binding of serum London to linear peptides of protein X1 of SARS-CoV Urbani [1] | Binding of serum London to looped/cyclic peptides of protein X1 of SARS-CoV Urbani [1] | Binding of serum SARS-green to linear peptides of protein X1 of SARS-CoV Urbani [1] | Binding of serum SARS-green to looped/cyclic peptides of protein X1 of SARS-CoV Urbani [1]
0.5: Binding of serum 1a to looped/cyclic peptides of protein X1 of SARS-CoV Urbani [1] | Binding of serum 62 to linear peptides of protein X1 of SARS-CoV Urbani [1] | Binding of serum 62 to looped/cyclic peptides of protein X1 of SARS-CoV Urbani [1] | Binding of serum SARS-yellow to looped/cyclic peptides of protein X1 of SARS-CoV Urbani [1] | Binding of Control Serum Blood-Bank to Looped peptides [2] | Binding of Control serum Blood-bank to linear peptides [2] | Binding of Control serum LUMC to linear peptides [2]
0.4: Binding of serum 1b to looped/cyclic peptides of protein X1 of SARS-CoV Urbani [1] | Binding of serum 2 to linear peptides of protein X1 of SARS-CoV Urbani [1] | Binding of serum 2 to looped/cyclic peptides of protein X1 of SARS-CoV Urbani [1] | Binding of serum 6 to linear peptides of protein X1 of SARS-CoV Urbani [1] | Binding of serum SARS-yellow to linear peptides of protein X1 of SARS-CoV Urbani [1]

VLAAVYRINWVTGGI
0.8: Binding of serum 1a to linear peptides of protein M of SARS-CoV Urbani [1] | Binding of Control Serum Blood-Bank to Looped peptides of the protein M of SARS-CoV Urbani [2] | Binding of Control serum LUMC to looped peptides of the protein M of SARS-CoV Urbani [2]
0.3: Rabbit serum linear peptides [3]
0.2: Binding of serum London to looped/cyclic peptides of protein M of SARS-CoV Urbani [1] | Binding of serum SARS-green to looped/cyclic peptides of protein M of SARS-CoV Urbani [1] | Binding of serum SARS-yellow to linear peptides of protein M of SARS-CoV Urbani [1]
0.4: Binding of serum London to linear peptides of protein M of SARS-CoV Urbani [1]
0.5: Binding of serum 1b to looped/cyclic peptides of protein M of SARS-CoV Urbani [1] | Binding of serum 6 to linear peptides of protein M of SARS-CoV Urbani [1] | Binding of serum 62 to looped/cyclic peptides of protein M of SARS-CoV Urbani [1]
0.6: Binding of serum 1a to looped/cyclic peptides of protein M of SARS-CoV Urbani [1] | Binding of serum 2 to looped/cyclic peptides of protein M of SARS-CoV Urbani [1] | Binding of serum 37 to linear peptides of protein M of SARS-CoV Urbani [1] | Binding of serum 37 to looped/cyclic peptides of protein M of SARS-CoV Urbani [1] | Binding of serum 62 to linear peptides of protein M of SARS-CoV Urbani [1] | Binding of serum SARS-green to linear peptides of protein M of SARS-CoV Urbani [1] | Binding of serum SARS-yellow to looped/cyclic peptides of protein M of SARS-CoV Urbani [1]
0.0: Rabbit serum looped peptides [3]
0.7: Binding of serum 1b to linear peptides of protein M of SARS-CoV Urbani [1] | Binding of serum 2 to linear peptides of protein M of SARS-CoV Urbani [1] | Binding of serum 6 to looped/cyclic peptides of protein M of SARS-CoV Urbani [1]
1.0: Binding of Control serum LUMC to linear peptides of the protein M of SARS-CoV Urbani [2]
0.9: Binding of Control serum Blood-bank to linear peptides of the protein M of SARS-CoV Urbani [2]

VLKMLHSSSLTSLLK
0.7: Binding of Control serum Blood-bank to linear peptides [2]
0.6: Binding of serum 1a to linear peptides of protein X2 [1] | Binding of serum 62 to linear peptides of protein X2 [1]
0.5: Binding of serum 1b to linear peptides of protein X2 [1] | Binding of serum 2 to linear peptides of protein X2 [1] | Binding of serum 6 to linear peptides of protein X2 [1] | Binding of serum 37 to linear peptides of protein X2 [1] | Binding of serum SARS-green to linear peptides of protein X2 [1] | Binding of serum SARS-yellow to linear peptides of protein X2 [1] | Binding of Control Serum Blood-Bank to Looped peptides [2]
0.4: Binding of serum 1a to looped/cyclic peptides of protein X2 of SARS-CoV Urbani [1] | Binding of serum 62 to looped/cyclic peptides of protein X2 of SARS-CoV Urbani [1] | Binding of serum London to linear peptides of protein X2 [1] | Binding of Control serum LUMC to linear peptides [2]
0.1: Binding of serum 2 to looped/cyclic peptides of protein X2 of SARS-CoV Urbani [1] | Binding of serum 6 to looped/cyclic peptides of protein X2 of SARS-CoV Urbani [1] | Binding of serum London to looped/cyclic peptides of protein X2 of SARS-CoV Urbani [1]
0.3: Binding of Control serum LUMC to looped peptides [2] | Binding of a rabbit serum to looped peptides [3]
0.2: Binding of serum 1b to looped/cyclic peptides of protein X2 of SARS-CoV Urbani [1] | Binding of serum 37 to looped/cyclic peptides of protein X2 of SARS-CoV Urbani [1] | Binding of serum SARS-green to looped/cyclic peptides of protein X2 of SARS-CoV Urbani [1] | Binding of serum SARS-yellow to looped/cyclic peptides of protein X2 of SARS-CoV Urbani [1] | Binding of a rabbit serum to linear peptides [3]
